# Where a name gives a salt, the structure may show the parent alone.
# Tests used:
# [1] = target: T1, human norepinephrine transporter (Homo sapiens, UniProt P23975); assay: hNET receptor binding ([125I]-RTI-55 radioligand); conditions: membranes of HEK-293 cells transfected with human norepinephrine transporter cDNA; 50 pM [125I]-RTI-55; IC50 converted by Cheng-Prusoff; read-out: NET Ki
# T1 construct: expressed in transfected cells; host or cells: HEK-293
# Experimental: (§1) Cell pastes of HEK-293 cells transfected with a human norepinephrine transporter cDNA were prepared. The cell pastes were resuspended in 400 to 700 ml of Krebs-HEPES assay buffer (25 mM HEPES, 122 mM NaCl, 3 mM KCl, 1.2 mM MgSO4, 1.3 mM CaCl2, and 11 mM glucose, pH 7.4) with a Polytron homogenizer at setting 7 for 30 seconds. Aliquots of membranes (5 mg/ml protein) were stored in liquid nitrogen until used.
# The binding assay was set up in Beckman deep-well polypropylene plates with a total volume of 250 μl containing: test compound (10^−5M to 10^−12M), cell membranes, and 50 pM [^125I]-RTI-55 (Perkin Elmer, NEX-272; specific activity 2200 Ci/mmol). The reaction was incubated by gentle agitation for 90 minutes at room temperature and was terminated by filtration through Whatman GF/C filter plates using a Brandel 96-well plate harvester. Scintillation fluid (100 μl) was added to each well, and bound [^125I]-RTI-55 was determined using a Wallac Trilux Beta Plate Counter. Test compounds were run in duplicate, and specific binding was defined as the difference between binding in the presence and absence of 10 μM desipramine.
# Excel and GraphPad Prism software were used for data calculation and analysis. IC50 values were converted to K, values using the Cheng-Prusoff equation.
# [2] = target: T2, human serotonin transporter (Homo sapiens, UniProt P31645); assay: hSERT receptor binding ([125I]-RTI-55 radioligand); conditions: membranes of HEK-293 cells transfected with human serotonin transporter cDNA; 50 pM [125I]-RTI-55; IC50 converted by Cheng-Prusoff; read-out: SERT Ki
# T2 construct: expressed in transfected cells; host or cells: HEK-293
# Experimental: as §1, with “serotonin” for “norepinephrine”, “Setting” for “setting”, “(˜2.5” for “(5”
# Assays were set up in FlashPlates pre-coated with 0.1% PEI in a total volume of 250 μl containing: test compound (10^−5M to 10^−12M), cell membranes, and 50 pM [^125I]-RTI-55 (Perkin Elmer, NEX-272; specific activity 2200 Ci/mmol). The reaction was incubated and gently agitated for 90 minutes at room temperature, and terminated by removal of assay volume. Plates were covered, and bound [^125I]-RTI-55 was determined using a Wallac Trilux Beta Plate Counter. Test compounds were run in duplicate, and specific binding was defined as the difference between binding in the presence and absence of 10 μM citalopram.
# Excel and GraphPad Prism software were used for data calculation and analysis. IC50 values were converted to Ki values using the Cheng-Prusoff equation.
# T2 sequence (P31645 whole entry): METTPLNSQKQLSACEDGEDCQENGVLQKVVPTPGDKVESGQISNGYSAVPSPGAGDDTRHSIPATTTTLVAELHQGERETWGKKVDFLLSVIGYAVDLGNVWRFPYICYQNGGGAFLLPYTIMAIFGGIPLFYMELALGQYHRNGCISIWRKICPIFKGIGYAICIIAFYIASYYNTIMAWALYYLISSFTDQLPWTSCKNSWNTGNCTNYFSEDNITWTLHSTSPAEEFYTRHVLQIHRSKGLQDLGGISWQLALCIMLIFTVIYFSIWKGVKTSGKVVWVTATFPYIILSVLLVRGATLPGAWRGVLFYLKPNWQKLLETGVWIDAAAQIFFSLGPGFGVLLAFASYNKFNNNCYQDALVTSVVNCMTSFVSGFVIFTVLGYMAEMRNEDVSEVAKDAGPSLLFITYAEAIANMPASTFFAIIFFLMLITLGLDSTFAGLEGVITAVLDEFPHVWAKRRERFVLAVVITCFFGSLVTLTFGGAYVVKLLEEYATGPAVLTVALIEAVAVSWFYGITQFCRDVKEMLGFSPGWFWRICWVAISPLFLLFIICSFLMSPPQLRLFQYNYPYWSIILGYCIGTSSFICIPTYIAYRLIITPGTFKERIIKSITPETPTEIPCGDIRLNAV
# T1 sequence (P23975 whole entry): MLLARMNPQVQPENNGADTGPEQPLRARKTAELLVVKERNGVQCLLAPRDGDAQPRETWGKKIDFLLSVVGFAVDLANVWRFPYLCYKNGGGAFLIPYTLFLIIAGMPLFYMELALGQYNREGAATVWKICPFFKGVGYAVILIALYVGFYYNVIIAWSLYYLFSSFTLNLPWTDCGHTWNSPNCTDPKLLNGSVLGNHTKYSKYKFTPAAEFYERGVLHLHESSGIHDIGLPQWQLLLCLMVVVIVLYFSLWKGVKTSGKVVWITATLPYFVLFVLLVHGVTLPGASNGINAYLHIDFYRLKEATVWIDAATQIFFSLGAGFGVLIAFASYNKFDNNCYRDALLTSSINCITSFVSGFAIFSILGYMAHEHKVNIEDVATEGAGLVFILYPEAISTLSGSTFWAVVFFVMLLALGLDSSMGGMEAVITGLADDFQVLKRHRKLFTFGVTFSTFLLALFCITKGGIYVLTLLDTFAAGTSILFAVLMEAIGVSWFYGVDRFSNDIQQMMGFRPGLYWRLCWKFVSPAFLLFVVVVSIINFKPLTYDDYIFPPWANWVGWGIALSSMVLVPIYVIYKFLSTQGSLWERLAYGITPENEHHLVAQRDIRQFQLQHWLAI
Ki [1] [nM],Ki [2] [nM],SMILES
3830,386,"CC(C)Oc1ccc(-c2ccc(F)cc2CO[C@H]2CCNC2)cc1 [Example D-107, (S)-3-(4-Fluoro-4′-isopropoxy-biphenyl-2-ylmethoxy)-pyrrolidine]"
90.4,85.8,"Cc1cccc(-c2ccc(F)cc2CO[C@H]2CCNC2)c1 [Example D-69, (S)-3-(4-Fluoro-3′-methyl-biphenyl-2-ylmethoxy)-pyrrolidine]"
1280,345,CC(=O)c1cccc(-c2ccccc2CO[C@H]2CCNC2)c1 [Example D-41]
≥ 10000,≥ 10000,N#Cc1cccc(-c2ccccc2CO[C@H]2CCNC2)c1 [Example D-53]
189,268,"Cc1ccc(C)c(-c2ccc(F)cc2CO[C@H]2CCNC2)c1 [Example D-89, (S)-3-(4-Fluoro-2′,5′-dimethyl-biphenyl-2-ylmethoxy)-pyrrolidine]"
738,144,"COc1c(C)cc(-c2ccc(F)cc2CO[C@H]2CCNC2)cc1C [Example D-92, (S)-3-(4-Fluoro-4′-methoxy-3′,5′-dimethyl-biphenyl-2-ylmethoxy)-pyrrolidine]"
–,154,"Cc1ccc(C)c(-c2ccccc2CO[C@H]2CCNC2)c1 [Example D-23, (S)-3-(2′,5′-Dimethyl-biphenyl-2-ylmethoxy)-pyrrolidine]"
314,172,"c1ccc(-c2ccc3ccccc3c2)c(CO[C@H]2CCNC2)c1 [Example D-29, (S)-3-(2-Naphthalen-2-yl-benzyloxy)-pyrroldine]"
87,30.6,"FC(F)(F)Oc1cccc(-c2ccccc2CO[C@H]2CCNC2)c1 [Example D-17, (S)-3-(3′-Trifluoromethoxy-biphenyl-2-ylmethoxy)-pyrrolidine]"
≥ 10000,3560,"Clc1ncccc1-c1ccccc1CO[C@H]1CCNC1 [Example D-118, (S)-2-Chloro-3-[2-(pyrrolidin-3-yloxymethyl)-phenyl]-pyridine]"
382,108,"Fc1ccc(F)c(-c2cccnc2CO[C@H]2CCNC2)c1 [Example C-1, (S)-3-(2,5-Difluoro-phenyl)-2-(pyrrolidin-3-yloxymethyl)-pyridine fumarate]"
963,2730,"CC(C)Oc1ncccc1-c1ccccc1CO[C@H]1CCNC1 [Example D-119, (S)-2-Isopropoxy-3-[2-(pyrrolidin-3-yloxymethyl)-phenyl]-pyridine]"
554,2750,"c1ccc(-c2ccccc2-c2ccccc2CO[C@H]2CCNC2)cc1 [Example D-34, (S)-3-([1,1′,2′,1″]Terphenyl-2-ylmethoxy)-pyrrolidine]"
146,49.7,"Fc1ccc(-c2ccc(F)c(Cl)c2)c(CO[C@H]2CCNC2)c1 [Example D-73, (S)-3-(3′-Chloro-4,4′-difluoro-biphenyl-2-ylmethoxy)-pyrrolidine]"
1120,1450,"COc1cccc(-c2ccc(F)cc2CO[C@H]2CCNC2)c1F [Example D-93, (S)-3-(4,2′-Difluoro-3′-methoxy-biphenyl-2-ylmethoxy)-pyrrolidine]"
97,155,"Fc1ccc(-c2ccc(Cl)cc2)c(CO[C@H]2CCNC2)c1 [Example D-111, (S)-3-(4′-Chloro-4-fluoro-biphenyl-2-ylmethoxy)-pyrrolidine]"
≥ 10000,57.8,"Cc1cc(C)n(-c2cccc(-c3ccccc3CO[C@H]3CCNC3)c2)n1 [Example D-59, (S)-3,5-Dimethyl-1-[2′-(pyrrolidin-3-yloxymethyl)-biphenyl-3-yl]-1H-pyrazole]"
≥ 10000,≥ 10000,"CS(=O)(=O)c1ccc(-c2ccc(F)cc2CO[C@H]2CCNC2)cc1 [Example D-102, (S)-3-(4-Fluoro-4′-methanesulfonyl-biphenyl-2-methoxy)-pyrrolidine]"
1030,1040,"CC(C)OC(=O)c1ccc(-c2ccc(F)cc2CO[C@H]2CCNC2)cc1 [Example D-88, (S)-4′-Fluoro-2′-(pyrrolidine-3-yloxymethyl)-biphenyl-4-carboxylic acid isopropyl ester]"

Ki [1] [nM],Ki [2] [nM],SMILES
258,77.1,"Cc1cccc(-c2ccc(F)cc2CO[C@H]2CCNC2)c1C [Example D-82, (S)-3-(4-Fluoro-2′,3′-dimethyl-biphenyl-2-ylmethoxy)-pyrrolidine]"
1920,70.4,"COc1ccc(-c2ccc(F)cc2CO[C@H]2CCNC2)cc1OC [Example D-84, (S)-3-(4-Fluoro-3′,4′-dimethoxy-biphenyl-2-ylmethoxy)-pyrrolidine]"
36,44.7,"Fc1cccc(-c2ccc(F)cc2CO[C@H]2CCNC2)c1 [Example D-80, (S)-3-(4,3′-Difluoro-biphenyl-2-ylmethoxy)-pyrrolidine]"
310,1200,"Fc1ccc(-c2ncccc2CO[C@H]2CCNC2)cc1F [Example B-3, (S)-2-(3,4-Difluoro-phenyl)-3-(pyrrolidin-3-yloxymethyl)-pyridine fumarate]"
80.9,185,"Fc1cccc(-c2ccccc2CO[C@@H]2CCNC2)c1F [Example A-15, (R)-3-(2′,3′-Difluoro-biphenyl-2-ylmethoxy)-pyrrolidine fumarate]"
36.6,423,"Cc1ccc(-c2ccc(F)cc2CO[C@H]2CCNC2)cc1 [Example D-63, (S)-3-(4-Fluoro-4′-methyl-biphenyl-2-ylmethoxy)-pyrrolidine]"
206,3350,"Fc1cccc(-c2ncccc2CO[C@H]2CCNC2)c1F [Example B-2, (S)-2-(2,3-Difluoro-phenyl)-3-(pyrrolidin-3-yloxymethyl)-pyridine fumarate]"
763,3770,"N#Cc1cccc(-c2ccc(F)cc2F)c1CO[C@H]1CCNC1 [Example E-2, (S)-2′,4′-Difluoro-2-(pyrrolidin-3-yloxymethyl)-biphenyl-3-carbonitrile fumarate]"
22.8,116,"COc1ccc(-c2ccccc2CO[C@H]2CCNC2)cc1C [Example A-10, (S)-3-(4′-Methoxy-3′-methyl-biphenyl-2-ylmethoxy)-pyrrolidine fumarate]"
4.84,39.2,"CCOc1cccc(-c2ccccc2CO[C@H]2CCNC2)c1 [Example D-1, (S)-3-(3′-Ethoxy-biphenyl-2-ylmethoxy)-pyrrolidine]"
4230,2970,"COc1ccc(C(C)C)cc1-c1ccccc1CO[C@H]1CCNC1 [Example D-49, (S)-(5′-Isopropyl-2′-methoxy-biphenyl-2-ylmethoxy)-pyrrolidine]"
66,54,"Fc1ccc(-c2ccccc2CO[C@@H]2CCNC2)cc1F [Example A-13, (R)-3-(3′,4′-Difluoro-biphenyl-2-ylmethoxy)-pyrrolidine fumarate]"
43.4,146,"Fc1ccc(-c2ccc(F)cc2CO[C@H]2CCNC2)cc1 [Example D-74, (S)-3-(4,4′-Difluoro-biphenyl-2-ylmethoxy)-pyrrolidine]"
102,218,"Fc1ccc(Cl)c(-c2ccccc2CO[C@H]2CCNC2)c1 [Example D-18, (S)-3-(2′-Chloro-5′-fluoro-biphenyl-2-ylmethoxy)-pyrrolidine]"
377,116,"Cc1cc(C)cc(-c2ccc(F)cc2CO[C@H]2CCNC2)c1 [Example D-67, (S)-3-(4-Fluoro-3′,5′-dimethyl-biphenyl-2-ylmethoxy)-pyrrolidine]"
50,–,"Cc1cc(F)ccc1-c1ccccc1CO[C@H]1CCNC1 [Example A-12, (S)-3-(4′-Fluoro-2′-methyl-biphenyl-2-ylmethoxy)-pyrrolidine hydrochloride]"
–,71.6,"Fc1ccc(Cl)cc1-c1ccccc1CO[C@H]1CCNC1 [Example D-9, (S)-3-(5′-Chloro-2′-fluoro-biphenyl-2-ylmethoxy)-pyrrolidine]"
–,528,"CCc1ccc(-c2ccccc2CO[C@H]2CCNC2)cc1 [Example D-39, (S)-(4′-Ethyl-biphenyl-2-ylmethoxy)-pyrrolidine]"

# Reference: US20090215857A1 (Pfizer Products Inc., priority 2005, published 2009)
